Data taken from US10596223B2, “JNK inhibitor molecules for treatment of various diseases” (Xigen Inflammation Ltd., priority 2011, dated 2020).
Entries after “also recorded” stand apart in the source; their conditions may differ. Square brackets hold non-standard residues; d marks the D form. Peptide text beside a SMILES is read from it.

Test system: scopolamine-induced dry eye in mice
Assay: Scopolamine-induced model of dry eye (TBUT, PRTT, histopathology)
Format: in vivo, mouse
Settings: for histological scores of the cornea compared with cyclosporine group: Day 22
Experimental: The objective of this study was to assess the effects of two different compounds, the all-D-retro-inverso JNK-inhibitor (poly-)peptide of SEQ ID NO: 197 and the JNK inhibitor (poly-)peptide of SEQ ID NO: 172, at three dose levels in a mouse model of scopolamine-induced dry eye.
The peptides of SEQ ID NO: 197 and SEQ ID NO: 172 were tested for efficacy in this murine model of dry eye. The peptides were both tested at a low, medium and a high dose. […] The vehicle, which also served as the negative control, was 0.9% Sodium Chloride for Injection USP.
The study consisted of a total of 9 groups of female C57BL/6 mice, comprising 8 groups of 12 mice each and an additional group of 4 mice. Bilateral short-term dry eye was induced by a combination of scopolamine hydrobromide (Sigma-Aldrich Corp., St. Louis, Mo.) injection (subcutaneous (SC), four times daily, 0.5 mg/dose, Days 0-21) and by exposing mice to the drying environment of constant air draft. […] Mice of Group 9 were maintained as un-induced, (no dry eye) untreated controls.
During the in-life (treatment) period, clinical observations were recorded once daily; slit-lamp examination (SLE) with corneal fluorescein staining, tear break-up time test (TBUT), and phenol red thread test (PRTT) were performed three times per week. Necropsies were performed on Day 22; eyes, eye lids, conjunctivae, and lacrimal glands were collected from both eyes of each animal. Tissues from the right eyes (oculus dexter, OD) were fixed and then evaluated microscopically. Tissues from the left eyes (oculus sinister; OS) were flash-frozen in liquid nitrogen and stored frozen at −80° C. for possible subsequent analyses.
Prior to the start of the study, the (poly-)peptides of SEQ ID NO: 172 and of SEQ ID NO: 197 were formulated in sterile saline (vehicle). Dosing solutions at each concentration were sterilized using 0.2-μm filters, aliquoted to multiple pre-labeled vials, and frozen at −20° C.
Prior to entry into the study, each animal underwent a SLE and indirect ophthalmic examination using topically-applied fluorescein. Ocular findings were recorded using the Draize scale ocular scoring. SLE and Draize scoring were repeated three times a week during the in-life period.
The TBUT test was conducted three times weekly by measuring the time elapsed in seconds between a complete blink after application of fluorescein to the cornea and the appearance of the first random dry spot in the tear film. […] At least ninety seconds later, corneal epithelial damage was graded using a slit-lamp with a cobalt blue filter after another drop of 0.1% fluorescein was reapplied to the cornea; the cornea then was scored per the Draize ocular scale.
Tear production was measured three times a week in both eyes using PRTT test strips (Zone-Quick; Menicon, Nagoya, Japan). Prior to the first treatment of the day, a thread was applied to the lateral canthus of the conjunctival fornix of each eye for 30 seconds under slit-lamp biomicroscopy. Tear migration up the tread (i.e., the length of the wetted cotton thread) was measured using a millimeter scale.
At necropsy on Day 22, both eyes from each animal, including the globes, lacrimal glands, eyelids, and conjunctivae, were excised.

[1] = topical ocular TID, Days 1 to 21

Q: Which “histological scores of the cornea compared with cyclosporine group” value (0.2% (mid dose)) does the source give for `CC(C)C[C@H](NC(=O)[C@H](CC(N)=O)NC(=O)[C@H](CC(C)C)NC(=O)[C@@H](NC(=O)[C@@H](C)NC(=O)[C@@H]1CCCN1C(=O)[C@H](CCCNC(=N)N)NC(=O)[C@@H](CCCCN)NC(=O)[C@@H]1CCCN1C(=O)[C@H](CCCNC(=N)N)NC(=O)[C@@H](CCCNC(=N)N)NC(=O)[C@H](CCCNC(=N)N)NC(=O)[C@H](CCCNC(=N)N)NC(=O)[C@H](CCC(N)=O)NC(=O)[C@@H](CCCNC(=N)N)NC(=O)[C@H](CCCNC(=N)N)NC(=O)[C@H](CCCCN)NC(=O)[C@H](CCCCN)NC(=O)[C@H](N)CCCNC(=N)N)[C@@H](C)O)C(=O)N[C@H](Cc1ccccc1)C(N)=O` [SEQ ID NO: 172, rKKRrQRRrRPkRPaTLNLf] (H-[dR]KKR[dR]QRR[dR]RP[dK]RP[dA]TLNL[dF]-NH2; N-terminus assumed) here?
A: The value was “the most effective, after cyclosporine”.

Q: What about the “histological scores of the cornea compared with cyclosporine group” value (0.6% (high dose)) of the same compound?
A: The value was “the most effective, after cyclosporine”.

Q: What about the “TBUT AUC compared with vehicle control (Kruskal-Wallis)” value (Day 7 to Day 21, SEQ ID NO: 172 0.05%, 0.2% and 0.6%, cyclosporine 0.05%) of the same compound?
A: The value was “significant increases in the TBUT AUC”.

Q: What about the “PRTT in the last test, aqueous tear production” value (Day 21, mid and high-dose (0.2%, 0.6%)) of the same compound?
A: Its value is “therapeutic effects similar to cyclosporine”.

Q: What about the “PRTT, production of aqueous tears, low, mid and high dose (in words)” value [1] of the same compound?
A: Its value is “significantly more aqueous tears compared to vehicle-treated animals”.

Q: And the “TBUT means, low, mid and high dose (in words)” value [1]?
A: The value was “above the vehicle group; also recorded: dose-dependent increase in TBUT”.
